Patent publication US20260285850A1, “SUBSTITUTED OXAZOLIDINONES AND IMIDAZOLINONES AS HERBICIDES” (FMC CORPORATION, priority 2023, published 2026)

Assays:
Format in all cases: in vivo
[1] = tested on: ragweed (common ragweed, Ambrosia artemisiifolia); assay: Test A preemergence soil spray, visual injury rating 0-100; details: 10 days, 0 = no effect, 100 = complete control
Outline: (§1)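 Visual injury, scored 0-100 (100 = complete control) against untreated plants, 10 days after greenhouse treatment. Test chemicals in surfactant-containing non-phytotoxic solvent were applied in loam soil and sand, as a preemergence soil spray on seeds or postemergence to plants at the one- to two-leaf stage.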

soybean (Glycine max) [2] = assay: as above; details: 10 days, 0 = no effect, 100 = complete control
Outline: as §1

[3] = tested on: green foxtail (Setaria viridis); assay: as above; details: 10 days, 0 = no effect, 100 = complete control
Outline: as §1

[4] = tested on: oat, wild (wild oat, Avena fatua); assay: as above; details: 10 days, 0 = no effect, 100 = complete control
Outline: as §1

[5] = tested on: blackgrass (Alopecurus myosuroides); assay: as above; details: 10 days, 0 = no effect, 100 = complete control
Outline: as §1

[6] = tested on: wheat (Triticum aestivum); assay: as above; details: 10 days, 0 = no effect, 100 = complete control
Outline: as §1

[7] = tested on: barnyardgrass (Echinochloa crus-galli); assay: as above; details: 10 days, 0 = no effect, 100 = complete control
Outline: as §1

[8] = tested on: ryegrass, Italian (italian ryegrass, Lolium multiflorum); assay: as above; details: 10 days, 0 = no effect, 100 = complete control
Outline: as §1

[9] = tested on: palmer (palmer amaranth, palmer pigweed, Amaranthus palmeri); assay: as above; details: 10 days, 0 = no effect, 100 = complete control
Outline: as §1

corn (Zea mays) [10] = assay: as above; details: 10 days, 0 = no effect, 100 = complete control
Outline: as §1

kochia (Bassia scoparia) [11] = assay: as above; details: 10 days, 0 = no effect, 100 = complete control
Outline: as §1

rice (Oryza sativa) = assay: Test B flooded paddy test, visual plant response rating 0-100; details: 250 g ai/ha, Flood, applied to paddy water, evaluated after 13 days
Method: (§2) Plant species in the flooded paddy test selected from barnyardgrass (Echinochloa crusgalli), ducksalad (Heteranthera limosa), rice (Oryza sativa), and sedge, umbrella (small-flower umbrella sedge, Cyperus difformis) were grown to the 2-leaf stage for testing. At time of treatment, test pots were flooded to 3 cm above the soil surface, treated by application of test compounds directly to the paddy water, and then maintained at that water depth for the duration of the test. Treated plants and controls were maintained in a greenhouse for 13 days, after which time all species were compared to controls and visually evaluated. […] A dash (-) response means no test result.

[12] = tested on: barnyardgrass (Echinochloa crusgalli); assay: as above; details: 250 g ai/ha, Flood, applied to paddy water, evaluated after 13 days
Method: as §2

[13] = tested on: sedge, umbrella (small-flower umbrella sedge, Cyperus difformis); assay: as above; details: 250 g ai/ha, Flood, applied to paddy water, evaluated after 13 days
Method: as §2

[14] = tested on: ducksalad (Heteranthera limosa); assay: as above; details: 250 g ai/ha, Flood, applied to paddy water, evaluated after 13 days
Method: as §2

[15] = tested on: ragweed (common ragweed, Ambrosia artemisiifolia); assay: Test A postemergence application, visual injury rating 0-100; details: 10 days
Description: (§3) Seeds of plant species selected from barnyardgrass (Echinochloa crus-galli), blackgrass (Alopecurus myosuroides), corn (Zea mays), foxtail, giant (giant foxtail, Setaria faberi), green foxtail (Setaria viridis), goosegrass (Eleusine indica), kochia (Bassia scoparia), oat, wild (wild oat, Avena fatua), palmer (palmer amaranth, palmer pigweed, Amaranthus palmeri), ragweed (common ragweed, Ambrosia artemisiifolia), ryegrass, Italian (italian ryegrass, Lolium multiflorum), soybean (Glycine max) and wheat (Triticum aestivum) were planted into a blend of loam soil and sand and treated preemergence with a directed soil spray using test chemicals formulated in a non-phytotoxic solvent mixture which included a surfactant.
(§4) At the same time, plants selected from these crops and weed species and also galium (catchweed bedstraw, Galium aparine) and horseweed (Erigeron canadensis) were planted in pots containing the same blend of loam soil and sand and treated with postemergence applications of test chemicals formulated in the same manner. Plants ranged in height from 2 to 10 cm and were in the one- to two-leaf stage for the postemergence treatment. Treated plants and untreated controls were maintained in a greenhouse for 10 days, after which time all treated plants were compared to untreated controls and visually evaluated for injury. Plant response ratings, summarized in Table A, are based on a 0 to 100 scale where 0 is no effect and 100 is complete control. A dash (-) response means no test result.

soybean (Glycine max) [16] = assay: as above; details: 10 days
Description: as §3, §4

[17] = tested on: green foxtail (Setaria viridis); assay: as above; details: 10 days
Description: as §3, §4

[18] = tested on: oat, wild (wild oat, Avena fatua); assay: as above; details: 10 days
Description: as §3, §4

[19] = tested on: blackgrass (Alopecurus myosuroides); assay: as above; details: 10 days
Description: as §3, §4

[20] = tested on: wheat (Triticum aestivum); assay: as above; details: 10 days
Description: as §3, §4

[21] = tested on: horseweed (Erigeron canadensis); assay: as above; details: 10 days
Description: as §3, §4

[22] = tested on: barnyardgrass (Echinochloa crus-galli); assay: as above; details: 10 days
Description: as §3, §4

[23] = tested on: ryegrass, Italian (italian ryegrass, Lolium multiflorum); assay: as above; details: 10 days
Description: as §3, §4

[24] = tested on: palmer (palmer amaranth, palmer pigweed, Amaranthus palmeri); assay: as above; details: 10 days
Description: as §3, §4

corn (Zea mays) [25] = assay: as above; details: 10 days
Description: as §3, §4

kochia (Bassia scoparia) [26] = assay: as above; details: 10 days
Description: as §3, §4

[27] = 31 g ai/ha, postemergence, 0 = no effect, 100 = complete control
[28] = Postemergence, 125 g ai/ha, 0 is no effect, 100 is complete control

Compound: CC1(C(=O)NC2CCC(C(=O)O)C2)CN(c2cc(F)cc(F)c2)C(=O)O1 (centres unmarked) [Compound 9]
- Ragweed plant response rating (0-100) ([1]; 31 g ai/ha): 0
- Ragweed plant response rating (0 to 100 scale) ([1]; 125 g ai/ha): 0
- Soybean plant response rating (0-100) (soybean (Glycine max) [2]; 31 g ai/ha): 0
- Soybean plant response rating (0 to 100 scale) (soybean (Glycine max) [2]; 125 g ai/ha): 80
- Foxtail, Green plant response rating (0-100) ([3]; 31 g ai/ha): 0
- Foxtail, Green plant response rating (0 to 100 scale) ([3]; 125 g ai/ha): 90
- Oat, Wild plant response rating (0-100) ([4]; 31 g ai/ha): 0
- Oat, Wild plant response rating (0 to 100 scale) ([4]; 125 g ai/ha): 90
- Blackgrass plant response rating (0-100) ([5]; 31 g ai/ha): 0
- Blackgrass plant response rating (0 to 100 scale) ([5]; 125 g ai/ha): 80
- Wheat plant response rating (0-100) ([6]; 31 g ai/ha): 80
- Wheat plant response rating (0 to 100 scale) ([6]; 125 g ai/ha): 90
- Barnyardgrass plant response rating (0-100) ([7]; 31 g ai/ha): 0
- Barnyardgrass plant response rating (0 to 100 scale) ([7]; 125 g ai/ha): 50
- Ryegrass, Italian plant response rating (0-100) ([8]; 31 g ai/ha): 0
- Ryegrass, Italian plant response rating (0 to 100 scale) ([8]; 125 g ai/ha): 90
- Amaranth, Palmer plant response rating (0-100) ([9]; 31 g ai/ha): 0
- Amaranth, Palmer plant response rating (0 to 100 scale) ([9]; 125 g ai/ha): 10
- Corn plant response rating (0-100) (corn (Zea mays) [10]; 31 g ai/ha): 10
- Corn plant response rating (0 to 100 scale) (corn (Zea mays) [10]; 125 g ai/ha): 80
- Kochia plant response rating (0-100) (kochia (Bassia scoparia) [11]; 31 g ai/ha): 0
- Kochia plant response rating (0 to 100 scale) (kochia (Bassia scoparia) [11]; 125 g ai/ha): 30
- Plant response rating, Rice (0 to 100 scale, 0 is no effect and 100 is complete control) (rice (Oryza sativa)): 0
- Plant response rating, Barnyardgrass (0 to 100 scale, 0 is no effect and 100 is complete control) [12]: 0
- Plant response rating, Sedge, Umbrella (0 to 100 scale, 0 is no effect and 100 is complete control) [13]: 0
- Plant response rating, Ducksalad (0 to 100 scale, 0 is no effect and 100 is complete control) [14]: 0
- Ragweed plant response rating (0-100) [15, 27]: 0
- Ragweed plant response rating (0 to 100 scale) [15, 28]: 0
- Soybean plant response rating (0-100) (soybean (Glycine max) [16]; [27]): 60
- Soybean plant response rating (0 to 100 scale) (soybean (Glycine max) [16]; [28]): 70
- Foxtail, Green plant response rating (0-100) [17, 27]: 30
- Foxtail, Green plant response rating (0 to 100 scale) [17, 28]: 90
- Oat, Wild plant response rating (0-100) [18, 27]: 90
- Oat, Wild plant response rating (0 to 100 scale) [18, 28]: 90
- Blackgrass plant response rating (0-100) [19, 27]: 60
- Blackgrass plant response rating (0 to 100 scale) [19, 28]: 70
- Wheat plant response rating (0-100) [20, 27]: 90
- Wheat plant response rating (0 to 100 scale) [20, 28]: 90
- Horseweed plant response rating (0-100) [21, 27]: 0
- Horseweed plant response rating (0 to 100 scale) [21, 28]: 10
- Barnyardgrass plant response rating (0-100) [22, 27]: 70
- Barnyardgrass plant response rating (0 to 100 scale) [22, 28]: 100
- Ryegrass, Italian plant response rating (0-100) [23, 27]: 50
- Ryegrass, Italian plant response rating (0 to 100 scale) [23, 28]: 80
- Amaranth, Palmer plant response rating (0-100) [24, 27]: 10
- Amaranth, Palmer / Pigweed, Palmer plant response rating (0 to 100 scale) [24, 28]: 90
- Corn plant response rating (0-100) (corn (Zea mays) [25]; [27]): 20
- Corn plant response rating (0 to 100 scale) (corn (Zea mays) [25]; [28]): 100
- Kochia plant response rating (0-100) (kochia (Bassia scoparia) [26]; [27]): 50
- Kochia plant response rating (0 to 100 scale) (kochia (Bassia scoparia) [26]; [28]): 80
